# Assay results from patent US9359298B2, “Cajanine structure analogous compound, preparation method and use” (INSTITUTE OF MEDICINAL BIOTECHNOLOGY, CHINESE ACADEMY OF …, priority 2011, dated 2016).
# Like-named read-outs stand apart in the source and are kept apart here.
# What was measured:
# Format in all cases: cell-based
# [1] = test system: Influenza A virus (hanfang359/95); test: Determination of anti-influenza virus activity (CPE in MDCK cells); settings: for IC50: Influenza A virus, MDCK, 36 h; for anti-influenza virus activities compared with the lead compound cajanine: statement in words
# Coxsackie virus B6 = test: Coxsackie virus activity assay (CPE in Vero cells); settings: Vero
# HCV = test: Anti-hepatitis C virus (HCV) activity assay (HCV RNA in Huh7.5 cells); settings: for EC50: Hepatitis C virus, Huh7.5, 72 h, read-out: HCV EC50; for anti-HCV viral activity: statement in words
# Protocol: Inoculate Huh7.5 cells into 96-well plates to a density of 3×10^4 cells/cm^2, culture for 24h, infect the cells with 45 IU/cell HCV supernatant, meanwhile, add drug solutions or solvent control for treatment.
# HIV-1 III B virus = test: Anti-HIV activity assay (P24 antigen in MT-4 cells); settings: for IC50: Human immunodeficiency virus 1, MT4, 96 h, read-out: HIV IC50; for anti-HIV viral activity: statement in words
# [2] = read-out: COX-B6 IC50, Vero cells, about 100TCID50, CPE, Reed-Muench
# [3] = Huh7.5 cells, 72 h, HCV RNA by RT-PCR, Reed-Muench
# [4] = MT-4 cells, HIV-1 III B 100TCID50, 96 h, P24 antigen
Structure (SMILES),IC50 [1] [µg/mL],anti-influenza virus activities compared with the lead compound cajanine [1],IC50 (Coxsackie virus B6; [2]) [µg/mL],EC50 (HCV; [3]) [µg/mL],anti-HCV viral activity (HCV),IC50 (HIV-1 III B virus; [4]) [µg/mL],anti-HIV viral activity (HIV-1 III B virus),IC50 (Coxsackie virus B6; read-out: COX-B6 IC50) [µg/mL],EC50 (HCV) [µg/mL],IC50 (HIV-1 III B virus) [µg/mL]
"COc1cc(/C=C/c2ccccc2)cc(OC(=O)C(=O)O)c1CC=C(C)C [Compound 31c, 2-isopentenyl-3-carboxyformyloxy-5-[(E)-styryl]anisole]",0.08,significantly stronger than the lead compound cajanine,0.67,0.77,"stronger anti-HIV, HCV viral activities",0.29,"stronger anti-HIV, HCV viral activities",,,
"COc1cc(/C=C/c2ccccc2)cc(OC(=O)CN(C)C)c1CC=C(C)C [Compound 24o, 2-isopentenyl-3-(N,N-dimethylacetoxy)-5-[(E)-styryl]anisole]",2.31,,1.21,1.34,,0.69,,,,
"COC(=O)c1c(/C=C/c2cc(OC)c(OC)c(OC)c2)cc(OC)c(CC=C(C)C)c1O [Compound 8u, methyl 2-hydroxy-3-isopentenyl-4-methoxy-6-[(E)-(3,4,5-trimethoxy-styryl)]benzoate]",0.11,,1.65,0.67,"stronger anti-HIV, HCV viral activities",1.49,"stronger anti-HIV, HCV viral activities",,,
"COc1cc(/C=C/c2ccccc2)cc(OCN)c1CC=C(C)C [Compound 26c, 2-isopentenyl-3-aminomethoxy-5-[(E)-styryl]anisole]",1.35,,2.64,2.07,,3.18,,,,
COc1cc(/C=C/c2ccccc2)cc(OC(=O)c2cnc[nH]2)c1CC=C(C)C [Compound 24r],0.98,,0.68,1.05,,2.31,,,,
"COc1cc(/C=C/c2ccccc2)cc(OC(=O)NN)c1CC=C(C)C [Compound 29c, 2-isopentenyl-3-hydrazinoformylox-5-[(E)-styryl]anisole]",0.24,significantly stronger than the lead compound cajanine,,,,,,0.36,0.89,0.6
"COc1cc(/C=C/c2ccccc2)cc(OC(=O)CN)c1CC=C(C)C [Compound 24c, 2-isopentenyl-3-aminoacetoxy-5-[(E)styryl]anisole]",1.24,,0.98,0.94,,2.78,,,,
COC(=O)c1c(/C=C/c2ccccc2)cc(OC)c(CC=C(C)C)c1OC(=O)CN [Compound 24a],2.31,,3.21,0.98,,1.79,,,,
COc1cc(/C=C/c2ccccc2)cc(OC(=O)C2CCCN2)c1CC=C(C)C (stereo not drawn) [Compound 24f],0.13,significantly stronger than the lead compound cajanine,0.21,0.69,,1.01,,,,
"COC(=O)c1c(/C=C/c2cc(OC)ccn2)cc(OC)c(CC=C(C)C)c1O [Compound 8v, methyl 2-hydroxy-3-isopentenyl-4-methoxy-6-[(E)-2-(4-methoxypyrid-2-yl)ethenyl]benzoate]",0.87,,2.68,2.39,"stronger anti-HIV, HCV viral activities",1.01,"stronger anti-HIV, HCV viral activities",,,
COC(=O)c1c(/C=C/c2ccccc2)cc(OC)c(CC=C(C)C)c1OC(=O)c1cnc[nH]1 [Compound 24p],1.32,,2.36,0.77,,0.31,,,,
"NC(=O)c1ncn([C@@H]2O[C@H](CO)[C@@H](O)[C@H]2O)n1 [RBV, Ribavirin, reference compound]",0.59,,412,,,,,,,
"COC(=O)c1c(/C=C/c2ccccc2)cc(OC)c(CC=C(C)C)c1OC(=N)N [Compound 27a, 2-iso-ureido-3-isopentenyl-4-methoxy-6-[(E)-styryl]-benzoate]",1.32,,2.34,1.34,,2.48,,,,
"COC(=O)c1c(/C=C/c2ccccc2)cc(OC)c(CC=C(C)C)c1OCC1CNCCN1 (stereo not drawn) [Compound 26d, methyl 2-(piperazin-2-yl)methoxy-3-isopentenyl-4-methoxy-6-[(E)-styryl]benzoate]",1.36,,2.75,1.53,,,,,,1.36
"COC(=O)c1c(/C=C/c2ccccc2)cc(OC)c(CC=C(C)C)c1OC(=O)C(=O)O [Compound 31a, methyl 2-carboxyformylxy-3-isopentenyl-4-methoxy-6-[(E)-styryl]benzoate]",0.14,significantly stronger than the lead compound cajanine,2.31,0.71,,1.3,,,,
"COC(=O)c1c(/C=C/c2ccccc2)cc(OC)c(CC=C(C)C)c1OC(=O)NN [Compound 29a, methyl 2-Hydrazinoformyloxy-3-isopentenyl-4-methoxy-6-[(E)-styryl]benzoate]",0.98,,,,"stronger anti-HIV, HCV viral activities",,"stronger anti-HIV, HCV viral activities",1.36,0.51,0.43
"COC(=O)c1c(/C=C/c2ccccn2)cc(OC)c(CC=C(C)C)c1O [Compound 8t, methyl 2-hydroxy-3-isopentenyl-4-methoxy-6-[(E)-2-(pyrid-2-yl)ethenyl]benzoate]",0.12,,1.32,0.64,"stronger anti-HIV, HCV viral activities",0.6,"stronger anti-HIV, HCV viral activities",,,
"COc1cc(/C=C/c2ccccc2)cc(OC(=N)N)c1CC=C(C)C [Compound 27c, 2-isopentenyl-3-isoureido-5-[(E)-styryl]anisole]",0.54,,0.92,1.26,,2.03,,,,
"COc1cc(/C=C/c2ccccc2)cc(OCC2CNCCN2)c1CC=C(C)C (stereo not drawn) [Compound 26f, 2-isopentenyl-3-(piperazin-2-yl)methoxy-5-[(E)-styryl]anisole]",0.68,significantly stronger than the lead compound cajanine,0.98,1.39,,1.61,,,,
"COC(=O)c1c(/C=C/c2ccccc2)cc(OC)c(CC=C(C)C)c1OC(=O)CN(C)C [Compound 24m, 2-(N,N-dimethylacetyloxy)-3-isopentenyl-4-methoxy-6-[(E)-styryl]benzoate]",6.52,,3.46,0.8,,2.6,,,,
"COC(=O)c1c(/C=C/c2ccccc2)cc(OC)c(CC=C(C)C)c1OC(=O)c1cccnc1 [Compound 24j, 2-(pyridyl-3-formylox)-3-isopentenyl-4-methoxy-6-[(E)-styryl]-benzoate]",2.36,,3.61,1.35,,2.65,,,,
COC(=O)c1c(/C=C/c2ccccc2)cc(OC)c(CC=C(C)C)c1OCN [Compound 26a],2.31,,6.54,2.09,,1.73,,,,
"COc1cc(/C=C/c2ccccc2)cc(OC(=O)c2cccnc2)c1CC=C(C)C [Compound 24l, 2-isopentenyl-3-(pyridyl-3-formyloxy)-5-[(E)-styryl]anisole]",1.04,,0.95,1.6,,1.4,,,,
"CCOC(=O)C1=C[C@@H](OC(CC)CC)[C@H](NC(C)=O)[C@@H](N)C1 [Oseltamivirphosphate, reference compound]",0.22,,,,,,,,,
"COC(=O)c1c(/C=C/c2ccccc2)cc(OC)c(CC=C(C)C)c1OC(C)=O [Compound 24g, methyl 2-acetoxy-3-isopentenyl-4-methoxy-6-[(E)-styryl]benzoate]",0.25,significantly stronger than the lead compound cajanine,1.65,0.83,,0.33,,,,
COC(=O)c1c(/C=C/c2ccccc2)cc(OC)c(CC=C(C)C)c1OC(=O)C1CCCN1 (stereo not drawn) [Compound 24d],0.12,,0.45,0.87,,0.81,,,,
COc1cc(/C=C/c2ccccc2)cc(OC(C)=O)c1CC=C(C)C [Compound 24i],0.15,significantly stronger than the lead compound cajanine,0.92,0.99,,2.09,,,,
